Each structure is given as a SMILES string. Like-named read-outs stand apart in the source and are kept apart here.

This assay deals with ras p21 protein. In words: Ras p21 Nucleotide Exchange Assay (inhibition of ^3H-GDP binding to p21 ras). The class given is biochemical. As to the method: Ras p21 Nucleotide Exchange Assay
The conditions for assay of nucleotide exchange inhibitors was adapted from Hall, A. and A. J. Self. 1986 J. Biol. Chem. 261: 10963-10965, which is hereby incorporated by reference.
0.5 μM ras p21 protein was incubated in 50 μls exhange buffer (50 mM Tris-HCl pH 7.5, 5 mM MgCl2, 50 mM NaCl and […]) on ice. Compounds dissolved in dimethyl sulfoxide (DMSO) were added to the desired concentration such that the final concentration of DMSO in the reaction mixture was 2% by weight. The reaction was incubated for 5 minutes on ice and then ^3 H-GDP (final concentration was 0.25 μM) was added.
Biological data are given throughout the specification in one of two forms: either as per cent inhibitions, or as the concentration at which the test compound causes 50% inhibition (IC50) of the binding of ^3 H-GDP to the p21 ras protein.
When the above assay was run at one concentration of the test compound, then the data was given as per cent inhibition at a particular concentration. […] When the assay was run at a series of concentrations, then the data were given as IC50 's.

The IC50 is the concentration that gives 50% inhibition. Take `COc1ccc2nc3c(c(C)nn3[C@@H]3O[C@H](COC(=O)c4ccccc4)[C@@H](OC(=O)c4ccccc4)[C@H]3OC(=O)c3ccccc3)c(Cl)c2c1` [O(CO)Ph O(CO)Ph O(CO)Ph]: the half-maximal inhibitory concentration (IC50) (table 2, concentration causing 50% inhibition of ^3H-GDP binding, read-out: ras p21 Assay (IC50)) was 10 µM. Consider `COc1ccc2nc3c(c(C)nn3[C@@H]3O[C@H](CNC(=O)c4ccccc4)[C@@H](O)[C@H]3O)c(Cl)c2c1` [O(CO)PhNH OH OH], for which the “ras p21 Assay (per cent inhibition)” value (table 2, 50 μM) is on record as 24%. `Cc1nn([C@@H]2O[C@H](COC(=O)c3ccccc3)[C@@H](OC(=O)c3ccccc3)[C@H]2OC(=O)c2ccccc2)c2nc3ccc(O)cc3c(Cl)c12`: where the note is “read-out: IC50 in the ras p21 assay”, the half-maximal inhibitory concentration (IC50) was found to be 10 µM.

These data come from US5595998A, “Pyrazoloquinolines” (priority 1994, dated 1997).
